Test results published in the supplement of paper PMC11368000.

Key:
Settings in all cases: exposure time: 90 min
[1] = test system: 1392 (donor line of iPSC-derived cardiomyocytes); test: POD (EC95) for loss of peak frequency (asystole) vs vehicle; higher = less potent (higher point of departure)
Procedure, shortened: (§1)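 Cardiomyocytes from human iPSCs of 16 donors spent 14 days in gelatin-coated 384-well plates before 2 h of fluorescent Ca2+ dye loading. They were then held for 90 min at 37 °C at final concentrations of 0.1, 1, 10 and 100 µM containing 0.5% DMSO, and Ca2+ flux was read on a FLIPR Tetra (8 frames/s, 100 s) before and after. Donor-level points of departure were taken from hierarchical Bayesian Hill fits to vehicle-normalised beat frequency, decay-to-rise ratio or peak frequency. For these, a 5% change was the threshold, or a 95% loss for peak frequency.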

[2] = test system: 1434 (donor line of iPSC-derived cardiomyocytes); test: as above
Procedure, shortened: as §1

[3] = test system: 1516 (donor line of iPSC-derived cardiomyocytes); test: as above
Procedure, shortened: as §1

[4] = test system: 1531 (donor line of iPSC-derived cardiomyocytes); test: as above
Procedure, shortened: as §1

[5] = test system: 1535 (donor line of iPSC-derived cardiomyocytes); test: as above
Procedure, shortened: as §1

[6] = test system: 1565 (donor line of iPSC-derived cardiomyocytes); test: as above
Procedure, shortened: as §1

[7] = test system: 20032 (donor line of iPSC-derived cardiomyocytes); test: as above
Procedure, shortened: as §1

[8] = test system: 30145 (donor line of iPSC-derived cardiomyocytes); test: as above
Procedure, shortened: as §1

[9] = test system: 1083 (donor line of iPSC-derived cardiomyocytes); test: POD (EC05) for increase in Ca2+ transient decay-to-rise ratio (QT prolongation) vs vehicle; higher = less potent (higher point of departure)
Experimental: (§2)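 Human iPSC-derived cardiomyocytes from 16 donors were exposed for 90 min at 37 °C to each PFAS at 0.1, 1, 10 and 100 µM in 0.5% DMSO, 384-well plates. Kinetic Ca2+ flux (FLIPR) and Hoechst nuclei counts were normalised to vehicle wells and fitted with a hierarchical Bayesian Hill model to give donor-specific PODs: EC05 for beat-rate increase or decrease and for decay-to-rise ratio increase (QT proxy), EC95 for peak-frequency loss (asystole), EC10 for total cell number loss. 0.03 µM is the lower bound.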

[10] = test system: 1118 (donor line of iPSC-derived cardiomyocytes); test: as above
Experimental: as §2

[11] = test system: 11235 (donor line of iPSC-derived cardiomyocytes); test: as above
Experimental: as §2

[12] = test system: 1368 (donor line of iPSC-derived cardiomyocytes); test: as above
Experimental: as §2

[13] = test system: 1392; test: as above
Experimental: as §2

[14] = test system: 1434; test: as above
Experimental: as §2

[15] = test system: 1535; test: as above
Experimental: as §2

[16] = test system: 1565; test: as above
Experimental: as §2

[17] = test system: 20032; test: as above
Experimental: as §2

[18] = test system: 20084 (donor line of iPSC-derived cardiomyocytes); test: as above
Experimental: as §2

[19] = test system: 30145; test: as above
Experimental: as §2

[20] = test system: 30171 (donor line of iPSC-derived cardiomyocytes); test: as above
Experimental: as §2

Structure (SMILES) | POD vs vehicle [1] [µM] | POD vs vehicle [2] [µM] | POD vs vehicle [3] [µM] | POD vs vehicle [4] [µM] | POD vs vehicle [5] [µM] | POD vs vehicle [6] [µM] | POD vs vehicle [7] [µM] | POD vs vehicle [8] [µM] | POD vs vehicle [9] [µM] | POD vs vehicle [10] [µM] | POD vs vehicle [11] [µM] | POD vs vehicle [12] [µM] | POD vs vehicle [13] [µM] | POD vs vehicle [14] [µM] | POD vs vehicle [15] [µM] | POD vs vehicle [16] [µM] | POD vs vehicle [17] [µM] | POD vs vehicle [18] [µM] | POD vs vehicle [19] [µM] | POD vs vehicle [20] [µM]
O=C(O)C(F)(F)C(F)(F)OC(F)(F)F [Perfluoro-3-methoxypropanoic_acid] | > 100 | > 100 | > 100 | > 100 | > 100 | > 100 | > 100 | > 100 | > 100 | > 100 | > 100 | > 100 | > 100 | > 100 | > 100 | > 100 | > 100 | > 100 | > 100 | > 100
NC(=O)C(F)(F)C(F)(F)C(F)(F)C(F)(F)C(N)=O [Octafluoroadipamide] | > 100 | > 100 | > 100 | > 100 | > 100 | > 100 | > 100 | > 100 | > 100 | > 100 | > 100 | > 100 | > 100 | > 100 | > 100 | > 100 | > 100 | > 100 | > 100 | > 100
OCCC(F)(F)C(F)(F)C(F)(F)C(F)(F)C(F)(F)C(F)(F)C(F)(F)C(F)(F)F [8:2 Fluorotelomer alcohol] | > 100 | > 100 | > 100 | > 100 | > 100 | > 100 | > 100 | > 100 | > 100 | > 100 | > 100 | > 100 | > 100 | > 100 | > 100 | > 100 | > 100 | > 100 | > 100 | > 100
O=C(CC(=O)C(F)(F)C(F)(F)F)C(F)(F)F [3H,3H-Perfluoro-2,4-hexanedione] | > 100 | 78.3 | > 100 | > 100 | > 100 | > 100 | > 100 | > 100 | > 100 | > 100 | > 100 | > 100 | > 100 | > 100 | > 100 | > 100 | > 100 | > 100 | > 100 | > 100
O=C(O)CCC(F)(F)C(F)(F)C(F)(F)C(F)(F)C(F)(F)C(F)(F)C(F)(F)F [3-Perfluoroheptylpropanoic_acid] | > 100 | 90.9 | > 100 | > 100 | > 100 | > 100 | > 100 | > 100 | > 100 | > 100 | > 100 | > 100 | > 100 | > 100 | > 100 | > 100 | 33.8 | 36.7 | > 100 | > 100
O=C(O)C(F)(F)C(F)(F)C(F)(F)C(F)(F)C(F)(F)C(F)(F)F [Perfluoroheptanoic_acid] | > 100 | > 100 | > 100 | > 100 | > 100 | > 100 | > 100 | > 100 | > 100 | > 100 | > 100 | > 100 | > 100 | > 100 | > 100 | > 100 | > 100 | > 100 | > 100 | > 100
NC(O)(C(F)(F)F)C(F)(F)F [2-Aminohexafluoropropan-2-ol] | > 100 | > 100 | > 100 | > 100 | > 100 | > 100 | > 100 | > 100 | > 100 | > 100 | > 100 | > 100 | > 100 | > 100 | > 100 | > 100 | > 100 | > 100 | > 100 | > 100
O=S(=O)(O)CCC(F)(F)C(F)(F)C(F)(F)C(F)(F)F [4:2 Fluorotelomer sulfonic acid] | > 100 | > 100 | > 100 | > 100 | > 100 | > 100 | > 100 | > 100 | > 100 | > 100 | > 100 | > 100 | > 100 | > 100 | > 100 | > 100 | > 100 | > 100 | > 100 | > 100
NC(=O)C(F)(F)C(F)(F)C(F)(F)C(F)(F)F [Nonafluoropentanamide] | > 100 | > 100 | > 100 | > 100 | > 100 | > 100 | > 100 | > 100 | > 100 | > 100 | > 100 | > 100 | > 100 | 0.357 | > 100 | > 100 | 0.52 | > 100 | > 100 | > 100
O=C(O)CCC(F)(F)C(F)(F)C(F)(F)C(F)(F)C(F)(F)F [2H,2H,3H,3H-Perfluorooctanoic_acid] | 73 | 90.8 | 75.1 | 92.7 | > 100 | > 100 | > 100 | 77.8 | > 100 | > 100 | > 100 | > 100 | > 100 | > 100 | > 100 | > 100 | 48.4 | > 100 | > 100 | > 100
CC(O)C(F)(F)C(F)(F)F (stereo not given) [1-Pentafluoroethylethanol] | > 100 | > 100 | > 100 | > 100 | > 100 | > 100 | > 100 | > 100 | > 100 | > 100 | > 100 | > 100 | > 100 | > 100 | > 100 | > 100 | > 100 | > 100 | > 100 | > 100
O=S(=O)(O)C(F)(F)C(F)(F)C(F)(F)C(F)(F)F [Perfluorobutanesulfonic_acid] | > 100 | > 100 | > 100 | > 100 | > 100 | > 100 | > 100 | > 100 | > 100 | > 100 | > 100 | > 100 | > 100 | > 100 | > 100 | > 100 | > 100 | > 100 | > 100 | > 100
O=C(O)C(F)(F)C(F)(F)C(F)(F)C(F)(F)C(F)(F)C(F)(F)C(F)(F)C(F)(F)C(F)(F)F [Perfluorodecanoic_acid] | > 100 | 67.4 | 68.8 | > 100 | > 100 | > 100 | > 100 | > 100 | > 100 | > 100 | > 100 | > 100 | > 100 | 19.9 | > 100 | > 100 | > 100 | > 100 | > 100 | > 100
O=S(=O)([O-])C(F)(F)C(F)(F)C(F)(F)C(F)(F)F.[K+] [Potassium_perfluorobutanesulfonate] | > 100 | > 100 | > 100 | > 100 | > 100 | > 100 | > 100 | > 100 | > 100 | > 100 | > 100 | > 100 | > 100 | > 100 | > 100 | > 100 | > 100 | > 100 | > 100 | > 100
NS(=O)(=O)C(F)(F)C(F)(F)C(F)(F)C(F)(F)C(F)(F)C(F)(F)F [Perfluorohexanesulfonamide] | > 100 | 58.4 | 77.8 | 40.8 | 71.2 | > 100 | 96 | > 100 | 30.8 | > 100 | > 100 | > 100 | > 100 | > 100 | 16.8 | > 100 | > 100 | > 100 | > 100 | > 100
O=C(O)C(F)(F)C(F)(F)C(F)(F)F [Perfluorobutanoic_acid] | > 100 | > 100 | > 100 | > 100 | > 100 | > 100 | > 100 | > 100 | > 100 | > 100 | > 100 | > 100 | > 100 | > 100 | > 100 | > 100 | > 100 | > 100 | > 100 | > 100
O=C(O)C(F)(F)C(F)(F)C(F)F [2,2,3,3,4,4-Hexafluorobutanoic_acid] | > 100 | > 100 | > 100 | > 100 | > 100 | > 100 | > 100 | > 100 | > 100 | > 100 | > 100 | > 100 | > 100 | > 100 | > 100 | > 100 | > 100 | > 100 | > 100 | > 100
O=C(O)C(F)(F)C(F)(F)C(F)(F)C(F)(F)C(=O)O [Octafluoroadipic_acid] | > 100 | > 100 | > 100 | > 100 | > 100 | > 100 | > 100 | > 100 | > 100 | > 100 | > 100 | > 100 | > 100 | > 100 | > 100 | > 100 | > 100 | > 100 | > 100 | > 100
O=C(O)C(F)(F)C(F)(F)C(F)(F)OC(F)(C(F)(F)F)C(F)(F)F [Perfluoro-4-isopropoxybutanoic_acid] | > 100 | > 100 | > 100 | > 100 | > 100 | > 100 | > 100 | > 100 | > 100 | > 100 | > 100 | > 100 | > 100 | > 100 | > 100 | > 100 | > 100 | > 100 | > 100 | > 100
O=C(O)C(F)(F)C(F)(F)C(F)(F)C(F)(F)F [Perfluoropentanoic_acid] | > 100 | > 100 | > 100 | > 100 | > 100 | > 100 | > 100 | > 100 | > 100 | > 100 | > 100 | > 100 | > 100 | > 100 | > 100 | > 100 | > 100 | > 100 | > 100 | > 100
